Experiments:
[1] = tested on: syngeneic mouse tumor models; conditions: Leucine + anti-PD-L1 immunotherapy, tumor model not stated
[2] = tested on: LLC lung cell transplants; experiment: syngeneic subcutaneous LLC lung cancer mouse model: tumor growth and survival; format: in vivo, female C57BL6/J mice
Method: (§1) As for experiments employing the use of chemotherapy, carboplatin (Sindan, 10mg/ml), oxaliplatin (Mylan, 5mg/ml in infusion solution) and paclitaxel (Accord, 6mg/ml in 527mg/ml polyoxyethylated castor oil and 391 mg/ml ethanol) were provided by Istituto Nazionale dei Tumori, Milano.
(§2) The impact of oral Leucine supplementation, as given at a daily dose of 500 mg/Kg Leucine by oral gavage, was investigated on in vivo tumor growth and mouse survival in orthotopic (4T1 and E0771 TNBC cells injected in the mammary fat pad of female BALB/c mice and female C57BL6/J mice, respectively) or subcutaneous (CT26: murine colorectal carcinoma - CRC, or LLC: murine […] lung carcinoma cells, injected in the subcutaneous tissue of female BALB/c mice and female C57BL6/J mice, respectively) syngeneic tumor models.

4T1-luc cell transplants = experiment: syngeneic orthotopic 4T1 TNBC mouse model: tumor growth and survival; format: in vivo, female BALB/c mice
Method: as §1, §2

[3] = tested on: CT26 CRC cell transplants; experiment: syngeneic subcutaneous CT26 colorectal cancer mouse model: tumor growth and survival; format: in vivo, female BALB/c mice
Method: as §1, §2

E0771 cell transplants = experiment: syngeneic orthotopic E0771 TNBC mouse model: tumor growth and survival; format: in vivo, female C57BL6/J mice
Method: as §1, §2

[4] = Leu + fasting + anti-PD-L1, compared to anti-PDL1 MoAb + fasting
[5] = Leucine 500 mg/kg daily + cyclic fasting + carboplatin 50 mg/kg weekly + anti-PD-L1 MoAb, compared to the fasting-Leucine doublet
[6] = Leucine 500 mg/kg daily oral gavage + carboplatin 50 mg/kg once a week i.p., effect less evident, yet still statistically significant
[7] = Leucine 500 mg/kg daily oral gavage + cyclic fasting (48-hour water-only fasting, repeated every 7 days)
[8] = Leucine 500 mg/kg once a day by oral gavage, alone, standard diet
[9] = Leucine 500 mg/kg daily oral gavage + anti-PD-L1 MoAb 100 ug per mouse i.p. every other day, 4 cycles
[10] = Leucine 500 mg/kg daily oral gavage + oxaliplatin 5 mg/kg once a week i.p., effect less evident, yet still statistically significant
[11] = Leucine 500 mg/kg daily oral gavage + paclitaxel 30 mg/kg once a week i.p., most relevant effects in this model
[12] = carboplatin alone, 50 mg/kg once a week i.p.
[13] = oxaliplatin alone, 5 mg/kg once a week i.p.
[14] = paclitaxel alone, 30 mg/kg once a week i.p.

CC(C)C[C@H](N)C(=O)O [Leucine]
primary tumor mass ([1]; observed in some animals): completed disappearance of the primary tumor mass | survival of some mice ([1]; some mice): long-term survival | animal survival [2, 4]: prolonged animal survival | tumor growth [2, 4]: significantly slowed down tumor growth | animal survival [2, 5]: meaningful prolongation of animal survival | animal survival [2, 6]: prolonging animal survival | in vivo tumor growth [2, 6]: cooperated with chemotherapy in slowing down in vivo tumor growth | animal survival [2, 7]: significant prolongation of animal survival | in vivo tumor growth [2, 7]: cooperative reduction of in vivo tumor growth | animal survival [2, 8]: prolonged animal survival | primary tumor growth [2, 8]: slowed down primary tumor growth | animal survival (4T1-luc cell transplants; [5]): meaningful prolongation of animal survival | animal survival (4T1-luc cell transplants; [9]): prolonged animal survival | in vivo tumor growth (4T1-luc cell transplants; [9]): cooperatively slowed down in vivo tumor growth | animal survival (4T1-luc cell transplants; [6]): prolonging animal survival | in vivo tumor growth (4T1-luc cell transplants; [6]): cooperated with chemotherapy in slowing down in vivo tumor growth | animal survival (4T1-luc cell transplants; [7]): significant prolongation of animal survival | in vivo tumor growth (4T1-luc cell transplants; [7]): cooperative reduction of in vivo tumor growth | animal survival (4T1-luc cell transplants; [8]): prolonged animal survival | primary tumor growth (4T1-luc cell transplants; [8]): slowed down primary tumor growth | animal survival ([3]; Leucine 500 mg/kg daily + cyclic fasting + oxaliplatin 5 mg/kg weekly + anti-PD-L1 MoAb, compared to the fasting-Leucine doublet): meaningful prolongation of animal survival | animal survival [3, 9]: prolonged animal survival | in vivo tumor growth [3, 9]: cooperatively slowed down in vivo tumor growth | animal survival [3, 7]: significant prolongation of animal survival | in vivo tumor growth [3, 7]: cooperative reduction of in vivo tumor growth | animal survival [3, 10]: prolonging animal survival | in vivo tumor growth [3, 10]: cooperated with chemotherapy in slowing down in vivo tumor growth | animal survival [3, 8]: prolonged animal survival | primary tumor growth [3, 8]: slowed down primary tumor growth | primary tumor ([3]; quadruple treatment: Leucine + cyclic fasting + oxaliplatin + anti-PD-L1 MoAb): complete regression of the primary tumor in some mice | animal survival (E0771 cell transplants; Leucine 500 mg/kg daily + cyclic fasting + paclitaxel 30 mg/kg weekly + anti-PD-L1 MoAb, compared to the fasting-Leucine doublet): meaningful prolongation of animal survival | animal survival (E0771 cell transplants; [9]): prolonged animal survival | in vivo tumor growth (E0771 cell transplants; [9]): cooperatively slowed down in vivo tumor growth | animal survival (E0771 cell transplants; [7]): significant prolongation of animal survival | in vivo tumor growth (E0771 cell transplants; [7]): cooperative reduction of in vivo tumor growth | animal survival (E0771 cell transplants; [11]): prolonging animal survival | in vivo tumor growth (E0771 cell transplants; [11]): cooperated with chemotherapy in slowing down in vivo tumor growth | animal survival (E0771 cell transplants; [8]): prolonged animal survival | primary tumor growth (E0771 cell transplants; [8]): slowed down primary tumor growth | primary tumor (E0771 cell transplants; quadruple treatment: Leucine + cyclic fasting + paclitaxel + anti-PD-L1 MoAb): complete regression of the primary tumor in some mice

N.N.O=C([O-])C1(C(=O)[O-])CCC1.[Pt+2] [carboplatin, reference compound]
animal survival [2, 12]: statistically significant prolongation of animal survival | in vivo tumor growth [2, 12]: slowed down in vivo tumor growth | animal survival (4T1-luc cell transplants; [12]): statistically significant prolongation of animal survival | in vivo tumor growth (4T1-luc cell transplants; [12]): slowed down in vivo tumor growth

O=C1[O][Pt]2([NH][C@@H]3CCCC[C@H]3[NH]2)[O]C1=O [oxaliplatin, reference compound]
animal survival [3, 13]: statistically significant prolongation of animal survival | in vivo tumor growth [3, 13]: slowed down in vivo tumor growth

CC(=O)O[C@H]1C(=O)[C@@]2(C)[C@H]([C@H](OC(=O)c3ccccc3)[C@]3(O)C[C@H](OC(=O)[C@H](O)[C@@H](NC(=O)c4ccccc4)c4ccccc4)C(C)=C1C3(C)C)[C@]1(OC(C)=O)CO[C@@H]1C[C@@H]2O [paclitaxel, reference compound]
animal survival (E0771 cell transplants; [14]): statistically significant prolongation of animal survival | in vivo tumor growth (E0771 cell transplants; [14]): slowed down in vivo tumor growth
